Results reported in patent US10597388B2, “Pyridazinone herbicides” (FMC CORPORATION, priority 2014, dated 2020).

Key:
Assay type in all cases: in vivo
[1] = tested on: barley, winter (winter barley, Hordeum vulgare); test: Test D controlled growth environment herbicide test, pre- and postemergence
Procedure, shortened: (§1)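 Pre-emergence: seeds sown in silt loam soil were sprayed with compound in a non-phytotoxic solvent mix containing surfactant. Post-emergence: plants at 2 to 18 cm (1- to 4-leaf stage) in peat moss/vermiculite medium got the same formulation. Visual 0–100 rating versus controls after 14 to 21 d.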

[2] = tested on: blackgrass (Alopecurus myosuroides); test: as above
Procedure, shortened: as §1

[3] = tested on: chamomile (scentless chamomile, Matricaria inodora); test: as above
Procedure, shortened: as §1

[4] = tested on: deadnettle (henbit deadnettle, Lamium amplexicaule); test: as above
Procedure, shortened: as §1

[5] = tested on: field poppy (Papaver rhoeas); test: as above
Procedure, shortened: as §1

[6] = tested on: foxtail, green (green foxtail, Setaria viridis); test: as above
Procedure, shortened: as §1

[7] = tested on: lambsquarters (Chenopodium album); test: as above
Procedure, shortened: as §1

[8] = tested on: mustard, wild (wild mustard, Sinapis arvensis); test: as above
Procedure, shortened: as §1

[9] = tested on: radish, wild (wild radish, Raphanus raphanistrum); test: as above
Procedure, shortened: as §1

[10] = tested on: windgrass (Apera spica-venti); test: as above
Procedure, shortened: as §1

[11] = tested on: waterhemp_RES1 (ALS & Triazine resistant common waterhemp, Amaranthus rudis); test: Test E greenhouse herbicide test, postemergence
Procedure, shortened: (§2)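 Postemergence spray of formulated test chemicals onto resistant waterhemp at 1- to 4-leaf stage (2–18 cm tall), grown in peat/vermiculite potting medium. Kept in greenhouse 14 to 21 d, then visually rated against untreated controls on a 0–100 scale (0 no effect, 100 complete control).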

[12] = tested on: waterhemp_RES2 (ALS & HPPD resistant common waterhemp, Amaranthus rudis); test: Test E greenhouse herbicide test, postemergence
Procedure, shortened: as §2

[13] = Postemergence, 31 g ai/ha, scale 0 to 100 (0 no effect, 100 complete control)
[14] = Postemergence, 125 g ai/ha, visual rating on scale 0 (no effect) to 100 (complete control), 14 to 21 d
[15] = Postemergence, 250 g ai/ha, scale 0 to 100 (0 no effect, 100 complete control)
[16] = Preemergence, 62 g ai/ha, scale 0 to 100 (0 no effect, 100 complete control)
[17] = Preemergence, 125 g ai/ha, scale 0 to 100 (0 no effect, 100 complete control)
[18] = Preemergence, 250 g ai/ha, scale 0 to 100, 0 no effect, 100 complete control
[19] = postemergence, 62 g ai/ha, scale 0 to 100, 0 no effect, 100 complete control
[20] = 31 g ai/ha, visual, scale 0 no effect to 100 complete control
[21] = 62 g ai/ha, scale 0 to 100 (0 no effect, 100 complete control)
[22] = 125 g ai/ha, scale 0 to 100 (0 no effect, 100 complete control)
[23] = 250 g ai/ha, scale 0 to 100 (0 no effect, 100 complete control)

In the case of `Cc1ccc2sc(Br)c(-c3c(O)c(C)nn(C)c3=O)c2c1` [Compound 79], the “Barley, Winter plant response rating” value [1, 13] is reported as 0, the “Plant response rating, Barley, Winter” value [1, 14] is reported as 0 and the “Plant response rating, Barley, Winter” value [1, 15] is reported as 5. The “Plant response rating (scale of 0 to 100), Barley, Winter” value ([1]; Preemergence, 31 g ai/ha) was 0, the “Plant response rating, Barley, Winter” value [1, 16] was 0 and the “Plant response rating, Barley, Winter” value [1, 17] was 0. For the same compound, the “Plant response rating, Barley, Winter” value [1, 18] was 10, the “Plant response rating, Barley, Winter” value [1, 19] was 0 and the “Blackgrass plant response rating” value [2, 13] was 10. The “Plant response rating, Blackgrass” value [2, 14] was 40, the “Plant response rating, Blackgrass” value [2, 15] was 50 and the “Plant response rating (scale of 0 to 100), Blackgrass” value ([2]; Preemergence, 31 g ai/ha) was 20. For the same compound, the “Plant response rating, Blackgrass” value [2, 16] was 45, the “Plant response rating, Blackgrass” value [2, 17] was 55 and the “Plant response rating, Blackgrass” value [2, 18] was 60. For the same compound, the “Plant response rating, Blackgrass” value [2, 19] was 20, the “Chamomile plant response rating” value [3, 13] was 85 and the “Plant response rating, Chamomile” value [3, 14] was 100. For the same compound, the “Plant response rating, Chamomile” value [3, 15] was 100, the “Plant response rating, Chamomile” value [3, 19] was 95 and the “Deadnettle plant response rating” value [4, 13] was 5. For the same compound, the “Plant response rating, Deadnettle” value [4, 14] was 20, the “Plant response rating, Deadnettle” value [4, 15] was 40 and the “Plant response rating (scale of 0 to 100), Deadnettle” value ([4]; Preemergence, 31 g ai/ha) was 0. For the same compound, the “Plant response rating, Deadnettle” value [4, 16] was 10, the “Plant response rating, Deadnettle” value [4, 17] was 100 and the “Plant response rating, Deadnettle” value [4, 18] was 90. The “Plant response rating, Deadnettle” value [4, 19] was 15, the “Field Poppy plant response rating” value [5, 13] was 75 and the “Plant response rating, Field Poppy” value [5, 14] was 95. For the same compound, the “Plant response rating, Field Poppy” value [5, 15] was 98, the “Plant response rating (scale of 0 to 100), Field Poppy” value ([5]; Preemergence, 31 g ai/ha) was 100 and the “Plant response rating, Field Poppy” value [5, 16] was 100. For the same compound, the “Plant response rating, Field Poppy” value [5, 17] was 100, the “Plant response rating, Field Poppy” value [5, 18] was 100 and the “Plant response rating, Field Poppy” value [5, 19] was 85. For the same compound, the “Foxtail, Green plant response rating” value [6, 13] was 20, the “Plant response rating, Foxtail, Green” value [6, 14] was 75 and the “Plant response rating, Foxtail, Green” value [6, 15] was 80. For the same compound, the “Plant response rating (scale of 0 to 100), Foxtail, Green” value ([6]; Preemergence, 31 g ai/ha) was 55, the “Plant response rating, Foxtail, Green” value [6, 16] was 60 and the “Plant response rating, Foxtail, Green” value [6, 17] was 65. For the same compound, the “Plant response rating, Foxtail, Green” value [6, 18] was 95, the “Plant response rating, Foxtail, Green” value [6, 19] was 70 and the “Lambsquarters plant response rating” value [7, 13] was 85. The “Plant response rating, Lambsquarters” value [7, 14] was 90, the “Plant response rating, Lambsquarters” value [7, 15] was 100 and the “Plant response rating (scale of 0 to 100), Lambsquarters” value ([7]; Preemergence, 31 g ai/ha) was 100. For the same compound, the “Plant response rating, Lambsquarters” value [7, 16] was 100, the “Plant response rating, Lambsquarters” value [7, 17] was 100 and the “Plant response rating, Lambsquarters” value [7, 18] was 100. For the same compound, the “Plant response rating, Lambsquarters” value [7, 19] was 80, the “Mustard, Wild plant response rating” value [8, 13] was 20 and the “Plant response rating, Mustard, Wild” value [8, 14] was 40. For the same compound, the “Plant response rating, Mustard, Wild” value [8, 15] was 50, the “Plant response rating (scale of 0 to 100), Mustard, Wild” value ([8]; Preemergence, 31 g ai/ha) was 0 and the “Plant response rating, Mustard, Wild” value [8, 16] was 15. For the same compound, the “Plant response rating, Mustard, Wild” value [8, 17] was 5, the “Plant response rating, Mustard, Wild” value [8, 18] was 10 and the “Plant response rating, Mustard, Wild” value [8, 19] was 20. For the same compound, the “Radish, Wild plant response rating” value [9, 13] was 0, the “Plant response rating, Radish, Wild” value [9, 14] was 0 and the “Plant response rating, Radish, Wild” value [9, 15] was 65. For the same compound, the “Plant response rating (scale of 0 to 100), Radish, Wild” value ([9]; Preemergence, 31 g ai/ha) was 25, the “Plant response rating, Radish, Wild” value [9, 16] was 25 and the “Plant response rating, Radish, Wild” value [9, 17] was 45. For the same compound, the “Plant response rating, Radish, Wild” value [9, 18] was 55, the “Plant response rating, Radish, Wild” value [9, 19] was 0 and the “Windgrass plant response rating” value [10, 13] was 15. The “Plant response rating, Windgrass” value [10, 14] was 35, the “Plant response rating, Windgrass” value [10, 15] was 65 and the “Plant response rating (scale of 0 to 100), Windgrass” value ([10]; Preemergence, 31 g ai/ha) was 25. The “Plant response rating, Windgrass” value [10, 16] was 40, the “Plant response rating, Windgrass” value [10, 17] was 50 and the “Plant response rating, Windgrass” value [10, 18] was 80. The “Plant response rating, Windgrass” value [10, 19] was 20, the “Plant response rating, Waterhemp_RES1” value [11, 20] was 50 and the “Plant response rating, Waterhemp_RES1” value [11, 21] was 60. For the same compound, the “Plant response rating, Waterhemp_RES1” value [11, 22] was 70, the “Plant response rating, Waterhemp_RES1” value [11, 23] was 75 and the “Plant response rating, Waterhemp_RES2” value [12, 20] was 20. The “Plant response rating, Waterhemp_RES2” value [12, 21] was 15, the “Plant response rating, Waterhemp_RES2” value [12, 22] was 15 and the “Plant response rating, Waterhemp_RES2” value [12, 23] was 55.
